Biological target: amyloid β (Aβ42) (Homo sapiens, UniProt P05067)
Experiment: 1H-15N SOFAST-HMQC NMR chemical shift perturbation
Assay type: biochemical

Chain of amyloid β (Aβ42) (P05067 672-713): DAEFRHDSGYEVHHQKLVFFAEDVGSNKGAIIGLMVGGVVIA

IC50: 10.6 ± 1.3 µM
SMILES: COc1cc(OC)c(C(=O)/C=C/c2ccccc2)c(O)c1O [DDC, 2′,3′-dihydroxy-4′,6′-dimethoxychalcone]

— article PMC9709778 (RSC Chemical Biology, 2022)
